Patent publication US20120004200A1, “TOPICAL PHARMACEUTICAL COMPOSITION CONTAINING A WATER-SENSITIVE ACTIVE PRINCIPLE” (GALDERMA S.A., priority 2008, published 2012)
Like-named read-outs stand apart in the source and are kept apart here.

Experiments:
[1] = Stability of calcitriol in various solvent oils; format: physicochemical; details: RT
Protocol: In order to optimize the dissolution of the active agent to be incorporated into the compositions according to the invention, stability tests are performed in various solvent oils: The preparations are prepared according to the following proportions: 0.00666% of calcitriol/0.29629% of BHT, a sufficient amount of solvent oil to obtain 100%. Assay technique by HPLC against reference substance.

[2] = Stability of ivermectin in various solvent oils; format: physicochemical; details: 40° C., T 1 month, 1% ivermectin
Protocol: The preparations are prepared according to the following proportions: 1% of ivermectin, a sufficient amount of solvent oil to obtain 100%.
(§1) Assay technique by HPLC against reference substance.

[3] = T 3 months, 4% hydroquinone
Protocol: The preparations are prepared according to the following proportions: 4% of hydroquinone, a sufficient amount of solvent oil to obtain 100%.
as §1

[4] = Stability of rucinol in various solvent oils; format: physicochemical; details: 40° C., T 1 month, 5% rucinol
Protocol: The preparations are prepared according to the following proportions: 5% of rucinol, a sufficient amount of solvent oil to obtain 100%.
as §1

For `C=C1/C(=C\C=C2/CCC[C@]3(C)[C@@H]([C@H](C)CCCC(C)(C)O)CC[C@@H]23)C[C@@H](O)C[C@@H]1O` [Calcitriol, calcitriol], the “% Calcitriol/To” value ([1]; solvent PPG-15 stearyl ether, T 1 month) was 100.00%, the “% Calcitriol/To” value ([1]; solvent caprylic/capric triglycerides, T 1 month, 0.00666% calcitriol, 0.29629% BHT) was 100.3% and the “% Calcitriol/To” value ([1]; solvent caprylic/capric triglycerides, T 3 months) was 99.9%. For the same molecule, the “% Calcitriol/To” value ([1]; solvent diisopropyl adipate, T 1 month) was 101.5%, the “% Calcitriol/To” value ([1]; solvent diisopropyl adipate, T 3 months) was 97.2% and the “% Calcitriol/To” value ([1]; solvent octyldodecanol, T 1 month) was 98.3%. For the same molecule, the “% Calcitriol/To” value ([1]; solvent octyldodecanol, T 3 months) was 95.00%.

In the case of ivermectin, the “% Ivermectin/To” value ([2]; solvent PPG-15 stearyl ether) is reported as 98.07%, the “% Ivermectin/To” value ([2]; solvent benzyl alcohol) is reported as 98.6% and the “% Ivermectin/To” value ([2]; solvent diisopropyl adipate) is reported as 96.7%. For the same molecule, the “% Ivermectin/To” value ([2]; solvent phenoxyethanol) was 98.6%.

For `Oc1ccc(O)cc1` [Hydroquinone, hydroquinone], the “% Hydroquinone/To” value ([3]; solvent PPG-15 stearyl ether, 40° C.) was 96.00%, the “% Hydroquinone/To” value ([3]; solvent caprylic/capric triglycerides, 40° C.) was 95.00% and the “% Hydroquinone/To” value ([3]; solvent diisopropyl adipate, temperature not given) was 97.4%.

With `CCCCc1ccc(O)cc1O` [Rucinol, rucinol] the “% Rucinol (% LC)” value ([4]; solvent PEG-8 caprylic/capric triglycerides) was 100 % LC, the “% Rucinol (% LC)” value ([4]; solvent PEG-35 castor oil) was 96 % LC and the “% Rucinol (% LC)” value ([4]; solvent PPG-15 stearyl ether) was 95 % LC. For the same molecule, the “% Rucinol (% LC)” value ([4]; solvent caprylic/capric triglycerides) was 99 % LC.
